Test results taken from US10682371B2, “Small molecule conjugates specifically activated in tumor microenvironment for targeting and use thereof” (priority 2014, dated 2020).

Legend:
macrophage = assay: Macrophage precursor antigen (F4/80) positive cells in CD45 positive cells of scar/CNV tissue, flow cytometry; format: in vivo, C57 mice; settings: 50 mW laser, 48 hours after treatment
Protocol: (§1) Production and treatment of scar. […] Two weeks later, eye tissues were taken from 4 animals of each group for immunohistochemical (HE) staining. For another 4 animals, they were subjected to fixed irradiation through photocoagulation by 50 mW laser and then to treatment. 48 hours later, their eye tissues were taken, homogenated, filtered to isolate individual cells in the scar and choroidal neovascularization (CNV) tissues. The cells were washed by buffer twice and stained by biotin-conjugated anti-F4/80 (biotin-labeled precursor cell antigen from macrophage) and FITC-conjugated anti-CD45 (isothiocyanate fluorescein labeled leucocyte common antigen) at ambient temperature for 1 hour. Then the cells were washed by PBS containing 1% fetal bovine serum twice and then analyzed for the ratio of the macrophage precursor antigen positive cells in the leucocyte common antigen (CD45) positive cells by flow cytometry.

HT1080 cells = assay: Tumor treatment in nude mice, HT1080 model (Example 61); format: in vivo; settings: for Size of tumor (mm^3) Day 13 / inhibitory rate on tumor Day 13 / Size of tumor (mm^3) Day 26 / inhibitory rate on tumor (Day 26): HT1080 in nude mice, IV once weekly for four weeks, E1-E4 15 mg/kg, mitomycin 2 mg/kg; for Inhibition on tumor growth, in words: HT1080, compared with mitomycin group and control group
Protocol: (§2) 1) HT1080 cells were purchased from American type culture collection (ATCC) and identified according the specification provided by ATCC. Cells were cultivated in DMEM culture solution containing 10% fetal bovine serum at 37° C. and 5% CO2. The cells were passaged for every three days and cells within the 15th passage were used.
2) Production of tumor. 5×10^6 HT1080 cells were subcutaneously injected to the back of the nude mice. Mice were randomly grouped after the tumor reached at least 100 mm^3. Then treatment began and the day on which the treatment began was day 1.
(§3) […]. The control group was administered by physiological saline. Drugs were administered once weekly for four weeks.

[1] = test system: scar and choroidal neovascularization (CNV); assay: Inhibition of scar and choroidal neovascularization (CNV) by eye drops after laser photocoagulation; format: in vivo, C57 mice; settings: for Maximal scar radius observed by pathological staining (pixel): 150 mW laser photocoagulation, eye drops daily, two weeks, C57 mice; for Treatment effect on scar radius and inhibition of macrophage, in words: eye drops, compared to the control group and the mitomycin group
Protocol: Animal: C57 mice of 16 weeks old, all female and 8 animals in each group.
as §1

Panc-1 cells = assay: Tumor treatment in nude mice, Panc-1 model (Example 60); format: in vivo; settings: for Size of tumor (mm^3) Day 10 / inhibitory rate on tumor Day 10 / Size of tumor (mm^3) Day 24 / inhibitory rate on tumor Day 24: Panc-1 in nude mice, IV once weekly for four weeks, E1-E4 15 mg/kg, mitomycin 2 mg/kg; for Inhibition on tumor growth, in words: Panc-1, compared with mitomycin group and control group
Protocol: as §2, with “Panc-1” for “HT1080”
2) Production of tumor. 5×10^6Panc-1 cells were subcutaneously injected to the back of the nude mice. Mice were randomly grouped after the tumor reached at least 100 mm^3. Then treatment began and the day on which the treatment began was day 1.
as §3

[2] = Multiple tumor models in nude mice: HT1080; format: in vivo; settings: Human colon caner HT1080; 15 mg/kg once weekly for three weeks; Day 26
Protocol: as §2, with “Corresponding tumor” for “HT1080”
(§4) 2) Production of tumor. 5×10^6 corresponding cells were subcutaneously injected to the back of the nude mice. Mice were randomly grouped after the tumor reached at least 100 mm^3. Then treatment began and the day on which the treatment began was day 1.
(§5) 3) Course of treatment. […] The control group was administered by physiological saline. Animals were administered once weekly for three weeks.
(§6) 3) Course of treatment. According to the clinical application of A1, A1 was administered in a dose of ⅙ MTD, i.v., 17.6 μmol/kg. The control group was administered by physiological saline. Animals were administered once weekly for three weeks.
(§7) 3) Course of treatment. According to the clinical application of B1, B1 was administered in a dose of ⅙ MTD, i.v., 17.6 μmol/kg. The control group was administered by physiological saline. Animals were administered once weekly for three weeks.
as §5, §5

Human colon cancer HT-29 = assay: Multiple tumor models in nude mice: HT-29; format: in vivo; settings: 15 mg/kg once weekly for three weeks, Day 26
Protocol: as §2, with “Corresponding tumor” for “HT1080”
as §4, §5, §6, §7, §5, §5

[3] = test system: Human chronic leukemia K562; assay: Multiple tumor models in nude mice: K562; format: in vivo; settings: 15 mg/kg once weekly for three weeks, Day 26
Protocol: as §2, with “Corresponding tumor” for “HT1080”
as §4, §5, §6, §7, §5, §5

[4] = test system: Human non-small cell lung cancer A549; assay: Multiple tumor models in nude mice: A549; format: in vivo; settings: 15 mg/kg once weekly for three weeks, Day 26
Protocol: as §2, with “Corresponding tumor” for “HT1080”
as §4, §5, §6, §7, §5, §5

[5] = test system: Human breast cancer MDA-MB435; assay: Multiple tumor models in nude mice: MDA-MB435; format: in vivo; settings: 15 mg/kg once weekly for three weeks, Day 26
Protocol: as §2, with “Corresponding tumor” for “HT1080”
as §4, §5, §6, §7, §5, §5

[6] = test system: Human pancreatic cancer Panc-1; assay: Multiple tumor models in nude mice: Panc-1; format: in vivo; settings: 15 mg/kg once weekly for three weeks, Day 26
Protocol: as §2, with “Corresponding tumor” for “HT1080”
as §4, §5, §6, §7, §5, §5

Human liver cancer Hepg2 = assay: Multiple tumor models in nude mice: Hepg2; format: in vivo; settings: 15 mg/kg once weekly for three weeks, Day 26
Protocol: as §2, with “Corresponding tumor” for “HT1080”
as §4, §5, §6, §7, §5, §5

Structure (SMILES) | F4/80+ cells among CD45+ cells (%) (macrophage) | Size of tumor (mm^3) Day 13 (HT1080 cells) | inhibitory rate on tumor Day 13 (HT1080 cells) | Size of tumor (mm^3) Day 26 (HT1080 cells) | inhibitory rate on tumor (Day 26) (HT1080 cells) | Inhibition on tumor growth, in words (HT1080 cells) | Maximal scar radius observed by pathological staining (pixel) [1] | Treatment effect on scar radius and inhibition of macrophage, in words [1] | Size of tumor (mm^3) Day 10 (Panc-1 cells) | inhibitory rate on tumor Day 10 (Panc-1 cells) | Size of tumor (mm^3) Day 24 (Panc-1 cells) | inhibitory rate on tumor Day 24 (Panc-1 cells) | Inhibition on tumor growth, in words (Panc-1 cells) | inhibitory rate on tumor (Day 26) [2] | inhibitory rate on tumor (Day 26) (Human colon cancer HT-29) | inhibitory rate on tumor (Day 26) [3] | inhibitory rate on tumor (Day 26) [4] | inhibitory rate on tumor (Day 26) [5] | inhibitory rate on tumor (Day 26) [6] | inhibitory rate on tumor (Day 26) (Human liver cancer Hepg2)
COCCOCCOCCOCCOCCOCC(=O)N[C@H](C)C(=O)N[C@H](C)C(=O)N[C@H](CC(N)=O)C(=O)Nc1ccc(COC(=O)N2[C@H]3[C@@H]2CN2C4=C(C(=O)C(N)=C(C)C4=O)[C@H](COC(N)=O)[C@]32OC)cc1 [Compound E2] | 7.7 ± 1.7% | 378.11 ± 68.46 mm^3 | 58.5% | 137.60 ± 156.42 mm^3 | 91.3% | greatly improved | 348 ± 146 pixel | greatly improved treatment effect on scar radius and inhibition of macrophage | 60.17 ± 30.26 mm^3 | 36.4% | 42.39 ± 62.24 mm^3 | 83.01% | greatly improved | – | – | – | – | – | – | –
CO[C@@]12[C@H](COC(N)=O)C3=C(C(=O)C(C)=C(N)C3=O)N1C[C@@H]1N[C@@H]12 [mitomycin, reference compound] | 14.6 ± 2.4% | 876.48 ± 78.29 mm^3 | 3.7% | 1410.28 ± 375.46 mm^3 | 10.4% | – | 953 ± 249 pixel | – | 118.85 ± 36.47 mm^3 | 7.5% | 249.54 ± 95.46 mm^3 | 27.9% | – | – | – | – | – | – | – | –
COCCOCC(=O)N[C@H](C)C(=O)N[C@H](C)C(=O)N[C@H](CC(N)=O)C(=O)Nc1ccc(COC(=O)N2[C@@H]3CN4C5=C(C(=O)C(N)=C(C)C5=O)[C@H](COC(N)=O)[C@]4(OC)[C@@H]32)cc1 [Compound E1, 2-(2-methoxyethoxy) acetyl-L-Ala-L-Ala-L-Asn-4-amino benzyl mitomycin] | 7.1 ± 1.4% | 438.15 ± 47.96 mm^3 | 51.9% | 331.57 ± 114.74 mm^3 | 78.9% | greatly improved | 332 ± 124 pixel | greatly improved treatment effect on scar radius and inhibition of macrophage | 76.42 ± 14.96 mm^3 | 35.7% | 84.62 ± 45.94 mm^3 | 66.1% | greatly improved | 95.4% | 86.7% | 77.3% | 95.3% | 86.3% | 86.5% | 85.7%
